# Assays:
# apoE−/− mice = experiment: Plasma lipids and antioxidants; assay type: in vivo; conditions: 1% probucol, 24 weeks
# Procedure: Male C57BL/6J mice, homozygous for the disrupted apoE gene (apoE−/−) were fed standard chow (Lab-Feed, Sydney, Australia) until aged 10 weeks. […] The high fat diet (control and probucol-supplemented) was prepared, according to the specifications of the Harlan Teklad diet TD88137.
# Plasma was obtained from control and probucol mice and aliquots frozen for subsequent determination of lipids. Separate aliquots were acidified with metaphosphoric acid (5%) to stabilize vitamin C prior to freezing and storage at −80° C. The remainder was pooled appropriately and used for ex vivo oxidation initiated by the peroxyl radical generator AAPH and lipoprotein separation by FPLC with UV280nm detection, as described in J Lipid Res. 1999;40:1104-1112.
# Lipid-soluble antioxidants and lipids were quantified by HPLC as described in FASEB J. 1999;13:667-675. For ascorbate analysis, frozen acidified samples were thawed, diluted with DPBS to adjust the pH to 7.4 and then immediately subjected to HPLC. Plasma triglycerides were determined enzymatically (Boehringer, Mannheim, Germany).
# ApoE−/− mice were fed either a control or probucol-supplemented diet for 24 weeks before aortas and plasma were analysed.
# apoE−/−;LDLr−/− mice = experiment: Plasma lipid and vitamin E levels; assay type: in vivo; conditions: chow with 0.03% bisphenol, 14 weeks
# Procedure: Male apoE−/−;LDLr−/− mice (59 total), were maintained on standard R3 chow from weaning to 8 weeks of age (young controls, n=9). Thereafter mice received R3 chow with (n=25) or without supplemented bisphenol (n=25) for an additional 14 weeks. Standard R3-mouse chow was fortified with bisphenol at 0.03% (w/w), a level of supplementation shown in pilot experiments to afford circulating concentrations of the drug of ˜200 μM, considered suitable to test the effect of the co-antioxidant on atherogenesis in this animal model. At 22 weeks of age 10 and 15 mice of each group were used for biochemical and histological analyses, respectively. […]
# Analyses of oxidised and non-oxidised lipids were carried out by RP-HPLC as described in Example 1 except that in some instances UV234 nm rather than post-column chemiluminescence detection was used to measure C18:2-OOH and the corresponding hydroxides (together referred to as CE-O(O)H) which show similar retention times under these chromatographic conditions. α-TQ, α-TOH, α-tocotrienol, D-isosascorbate and ascorbate were determined by HPLC with electrochemical detection. For oxidation of plasma, unesterified cholesterol (which remained non-oxidised in these experiments) was employed as internal standard for all polyunsaturated, lipid-soluble components analysed. […] All compounds were quantified by peak area comparison with authentic standards. […]
# [1] = tested on: tocopherol-mediated peroxidation (TMP); experiment: Anti-TMP index; assay type: biochemical
# α-tocopheroxyl radical = experiment: Tocopheroxyl radical attenuating ability (TRAA); assay type: biochemical; conditions: kobs with (+) or without (−) test compound
# [2] = tested on: apoE−/−;LDLr−/− mouse aortae; experiment: Aqueous and lipophilic parameters of aortic homogenates; assay type: in vivo, mice; conditions: for Aortic Ascorbate: apoE−/−;LDLr−/− mice
# Procedure: Mouse aortas were excised as follows: after bleeding, the heart was perfused with Dulbecco's phosphate-buffered saline containing 100 μM BHT and 1 mM EDTA (maximum pressure 80 mm Hg) through the left ventricle, the right side chamber being opened to allow flow. For histological samples only, the vasculature was subsequently fixed with formal saline. The hearts and entire aortas from all treatment groups were removed and immediately cleaned of fat and connective tissue. Aortas for biochemical analyses were frozen immediately ([…]) without formalin fixation.
# Cleaned aortic segments were thawed, blotted, pooled (n=7 or 8), weighed, added to 2 mL of argon-flushed phosphate-buffered saline (to give ˜40 mg wet tissue/mL) containing BHT (100 μM) and EDTA (1 mM). The tissue was minced with scissors, isoascorbate (5 μM) and α-tocotrienol (1 μM) added as internal standards for ascorbate and vitamin E (including α-TQ), respectively, and the samples transferred to a polytetrafluoroethylene-lined glass tube and homogenised at 4° C. for 5 minutes using a teflon piston rotating at 500 r.p.m. For recovery of oxidised lipids, [^3H]-Ch18:2-OH was incorporated into human LDL and added to the vessel prior to homogenisation. […] For ascorbate measurement, raw homogenate (50 μL) was added to metaphosphoric acid (5% v/v, 50 μL) and frozen on dry ice. Immediately before HPLC analysis, the aliquots were thawed and diluted with phosphate buffer (50 μL, 250 mM, pH 7.4), to adjust the pH. For the analyses of lipids, the remaining homogenate (˜1.8 mL) was divided into 4×450 μl aliquots and each extracted with chilled methanol (2 mL) and hexane (10 mL). Hexane phases were combined and evaporated to dryness and the residue resuspended in isopropanol (200 μL).
# Analyses of oxidised and non-oxidised lipids were carried out by RP-HPLC as described in Example 1 except that in some instances UV234 nm rather than post-column chemiluminescence detection was used to measure C18:2-OOH and the corresponding hydroxides (together referred to as CE-O(O)H) which show similar retention times under these chromatographic conditions. α-TQ, α-TOH, α-tocotrienol, D-isosascorbate and ascorbate were determined by HPLC with electrochemical detection. For oxidation of plasma, unesterified cholesterol (which remained non-oxidised in these experiments) was employed as internal standard for all polyunsaturated, lipid-soluble components analysed. Bisphenol and diphenoquinone were analysed by RP-HPLC: flow 1.5 mL/min, 100% solvent A (MeCN/MeOH/H20 10:10:3, v/v/v) for 0-15 min monitored at 270 nm, followed by 50% solvent A and B (MeCN/MeOH 1:1, v/v) for 15-22 min at 242 nm and then 100% B for 22-28 min at 420 nm. Bisphenol and diphenoquinone eluted at 9 and 27 min, respectively. All compounds were quantified by peak area comparison with authentic standards. Where indicated, total cholesterol and triglyceride were assayed enzymatically (Boehringer, Mannheim, Germany).
# Unless otherwise stated lipid and antioxidant levels are expressed as pmol/mg protein. LH, lipid containing bisallylic hydrogens. §Values are expressed as nmol/mg protein. Protein ranged from 2.4 - 3.3 mg/mL. ¶Value given represents ratio ×10^3. †Mice were ranked in order of plasma concentration of bisphenol, then corresponding aortae were pooled into groups of 7 and 8 on the basis of plasma drug-levels giving two distinct groups. Low and high bisphenol correspond to 106±40 and 212±50 μM, respectively. Control aortas were pooled randomly into two groups of 7 and 8 respectively.
smiles,measurement,setting,value
"CC(C)(Sc1cc(C(C)(C)C)c(O)c(C(C)(C)C)c1)Sc1cc(C(C)(C)C)c(O)c(C(C)(C)C)c1 [Probucol, probucol]",decrease of plasma vitamin E vs controls,apoE−/− mice,~4 fold
same,increase of plasma ascorbate vs controls,apoE−/− mice,~1.4 fold
same,Plasma Ascorbate,apoE−/− mice; plasma,129.2 µM
same,Plasma C18:2,apoE−/− mice; plasma,1.3 ± 0.8 mM
same,Plasma C20:4,apoE−/− mice; plasma,0.2 ± 0.2 mM
same,Plasma C (cholesterol),apoE−/− mice; plasma,2.6 ± 1.2 mM
same,Plasma CE-OH,apoE−/− mice; plasma,0.0002 mM
same,Plasma Total coenzyme Q,apoE−/− mice; plasma,0.4 µM
same,Plasma Triglycerides,apoE−/− mice; plasma,0.4 ± 0.0 mM
same,Plasma Ubiquinol-10,apoE−/− mice; plasma,0.01 ± 0.02 µM
same,Plasma Ubiquinone-9,apoE−/− mice; plasma,0.3 ± 0.1 µM
same,Plasma Ubiquinone-10,apoE−/− mice; plasma,0.1 ± 0.1 µM
same,Plasma α-Tocopherol,apoE−/− mice; plasma,10.5 ± 3.50 µM
"CC(C)(C)c1cc(-c2cc(C(C)(C)C)c(O)c(C(C)(C)C)c2)cc(C(C)(C)C)c1O [Bisphenol, bisphenol]",Plasma Triglycerides,apoE−/−;LDLr−/− mice,6.3 (0.5) mm
same,Anti-TMP index,[1],3.2
same,TRAA (decay of tocopheroxyl radical; kobs(+)/kobs(−)),α-tocopheroxyl radical,Immediate decay
same,Aortic C,[2]; Bisphenol [high],190 nmol/mg protein
same,Aortic C18:2,[2]; Bisphenol [high],13.3 nmol/mg protein
same,Aortic C20:4,[2]; Bisphenol [high],8.5 nmol/mg protein
same,Aortic CE-O(O)H,[2]; Bisphenol [high],2.8 pmol/mg protein
same,Aortic CE-O(O)H/LH,[2]; Bisphenol [high],0.002 ratio ×10^3
same,Aortic α-TOH,[2]; Bisphenol [high],586 pmol/mg protein
same,Aortic α-TQ,[2]; Bisphenol [high],3.5 pmol/mg protein
same,Aortic Ascorbate,[2]; Bisphenol [high] (plasma 212±50 μM),2570 pmol/mg protein
same,Aortic C,[2]; Bisphenol [low],204 nmol/mg protein
same,Aortic C18:2,[2]; Bisphenol [low],21.0 nmol/mg protein
same,Aortic C20:4,[2]; Bisphenol [low],12.7 nmol/mg protein
same,Aortic CE-O(O)H,[2]; Bisphenol [low],14.1 pmol/mg protein
same,Aortic CE-O(O)H/LH,[2]; Bisphenol [low],0.145 ratio ×10^3
same,Aortic α-TOH,[2]; Bisphenol [low],669 pmol/mg protein
same,Aortic α-TQ,[2]; Bisphenol [low],4.9 pmol/mg protein
same,Aortic Ascorbate,[2]; Bisphenol [low] (plasma 106±40 μM),3204 pmol/mg protein
same,level of aortic oxidised lipids lower than control,[2]; animals with high plasma levels of bisphenol,1000 fold
same,level of aortic oxidised lipids lower than control,[2]; animals with low plasma levels of bisphenol,10 fold

# Reference: patent US20020115728A1, “Compositions and methods for treating cardiovascular disorders” (priority 2000, published 2002)
